Entries after “also recorded” stand apart in the source; their conditions may differ.
Legend:
[1] = tested on: human tau N-terminal 1–368 fragment (hTau-N368); assay: Hippocampal phosphorylated and total tau in dox-treated Tau368 mice; assay type: in vivo, mouse
Protocol: Mice weighting 20–30 g were anesthetized with 1% pentobarbital sodium (35 mg/kg), and fixed in a stereotaxic instrument (RWD). The scalp was sterilized with iodophors and 75% ethanol, and incised along the skull midline. Holes were drilled. Adeno-associated virus or DEPTAC was injected into the dorsal DG (posterior 1.9 mm, lateral ±1.1 mm from the bregma, ventral −2.0 from the skull) or lateral ventricle (posterior 0.22 mm, lateral ±1.0 mm from the bregma, ventral −2.5 from the skull), respectively, using an automatic microinjection system (World Precision Instruments, USA) at a rate of 0.05 μL/min. The needle syringe was left in place for 5 min before withdrawal. The skin was sutured and sterilized with iodophors. Mice were placed on thermos tank for analepsia.
(§1) For 2-month male C57BL/6 mice, 10 mM FITC-labeled or unlabeled-DEPTAC were directly injected through the tail vein or lateral ventricle for the evaluation of BBB-penetrability. For 9-month 3×Tg AD mice or Tau368 (20–30 g body weight), unlabeled-DEPTAC (5 mM, 1 μL for each time) was delivered for once into the lateral ventricle through direct stereotaxic injection, or repeatedly administrated through guiding cannulas (RWD, Shenzhen, China) implanted into the lateral ventricle once every 3 days for a consecutive month to test its dephosphorylation efficiency. Mice were restricted in a custom designed device and stayed awake during drug administration, and sacrificed at 24 h post the single or last DEPTAC administration.
Cultured cells or hippocampus tissues were collected on ice, and homogenized with RIPA lysis buffer containing 50 mM Tris-HCl, 100 mM NaCl, 1% Triton X-100, 5 mM EDTA, and 1:100 PMSF, and then centrifuged at 12,000 × g for 20 min. The supernatant was collected for the analysis of soluble proteins. In some experiments, the pellets were further incubated with 8% SDS buffer at 37 °C and then ultrasound for 60 times to reach a complete resuspension for the analysis of insoluble tau. Protein concentration was measured through BCA assays (Thermo Fisher). Equal amount of protein from each sample were separated in SDS-PAGE gels, and then transferred onto nitrocellulose or 0.22 μm polyvinylidene fluoride membranes (Merck Millipore). The membranes were blocked with 5% BSA, and incubated in turn with primary and horseradish peroxidase-conjugated secondary antibodies: pS199-Tau (44734G, Invitrogen, 1:2000), pT205-Tau (11108-1, Signalway, 1:2000), pS396-Tau (11102, Signalway, 1:2000), pS404-Tau (11112, Signalway, 1:2000), AT8 (MN1020, Thermo Fisher, 1:1000), Tau5 (ab80579, Abcam, 1:1000), Tau46 (T9450, Sigma, 1:1000), PP2A-Bα (4953, Cell signaling, 1:1000), Phospho-Ser/Thr (ab17464, Abcam1:1000), Ubiquitin (ab7254, Abcam, 1:1000), MAP2 (AB5622, Millipore, 1:2000), hTau-N368 (a generous gift from Prof. Keqiang Ye, Emory University School of Medicine, 1:1000), DEPTAC (developed by Daian Biotechnology, Wuhan, China, 1:500), β-actin (ab6276, Abcam, 1:2000). HRP-conjugated goat anti-rabbit IgG (A0208, Beyotime, 1:3000), HRP-conjugated goat anti-mouse IgG (A0216, Beyotime, 1:3000). Blots were visualized using ECL luminol reagent (P0018FS, Beyotime), and quantified using ImageJ software.

Tau368 mice = assay: Novel-object recognition test; assay type: in vivo, mouse
Protocol: Novel-object recognition tests were performed one day after the object-place recognition. A similar protocol was used except that object B was replaced by a novel object (object C) in the test phase, and mice preference for the novel object was measured.

tau aggregation = assay: Thioflavin T staining of tau aggregation in the DG of Tau368 mice; assay type: in vivo, mouse; settings: DEPTAC for a consecutive month after stopping dox; **p < 0.01, n = 4–5 mice
Protocol: as §1
Free-floating brain sections were washed with Tris-buffered saline (TBS) for 3 × 5 min, and then incubated with 0.3% Thioflavin T (Sigma) dissolved in 50% ethanol at room temperature for 10 min. The sections were then decolorized in 50% ethanol for 3 × 5 min, washed in TBS, and subsequently co-stained with DAPI for 10 min.

human tau = assay: Fluorescence polarization competing assay, tau; assay type: binding; settings: 2.5 μM tau, 0.1 μM FITC-labeled DEPTAC; 37 °C, 30 min
Protocol: Purified human tau and PP2A-Bα (PPP2R1A) were obtained from AtaGenix (Wuhan, China), and concentrated using ultrafiltration tubes (Beyotime). In basic binding assays, tau or PP2A-Bα was aliquoted into serial dilutions with a buffer containing 20 mM Tris-HCl, 150 mM NaCl, and 0.5 mM 1,4-Dithiothreitol (pH 7.4), and incubated with 0.1 μM FITC-labeled DEPTAC, FITC-labeled control peptide and FITC (9:1 vol/vol), respectively, in a black 384-well plates (Corning) under 37 °C for 30 min. In competition binding assays, a mixture of 2.5 μM tau or PP2A-Bα and 0.1 μM FITC-labeled DEPTAC were incubated with increasing amounts of unlabeled-DEPTAC under 37 °C for 30 min. Fluorescence intensity was measured by a Biotek Synergy 2 microplate reader with the wavelengths of 480 nm (60) (Ex)/560 nm (40) (Em). The polarization measurements were corrected for background contributions to the measured intensity by subtracting the parallel and perpendicular intensity readings by the vehicle-only wells from the intensity readings for each data point. Fluorescence polarization (P) was calculated by the formula P = (I║ − I┴) / (I║ + I┴), where I║ was the intensity of emitted light polarized parallel to the excitation light, and I┴ was the intensity of emitted light polarized perpendicular to the excitation light.

[2] = tested on: human tau N-terminal 1–368 fragment (hTau-N368); assay: Hippocampal phosphorylated and total tau in dox-treated Tau368 mice; assay type: in vivo, mouse; settings: 5 mM, i.c.v.
[3] = DEPTAC for a consecutive month after stopping dox, **p < 0.01, n = 3 mice
[4] = dox kept on, DEPTAC i.c.v. by guiding cannula once every three days for a consecutive month, 10 μg total protein, *p < 0.05, n = 3–4
[5] = hippocampus of Tau368 mice, 24 h of post-DEPTAC administration

(1) YQQYQDATADEQG, originates from the porcine β-tubulin 422–434 for recognizing and binding tau proteins.[5],[6] (2) GSGS, a linker for increasing the flexibility of the peptide.[15] (3) KKVAVVRTPPKSP, for recruiting PP2A-Bα,[16] and (4) RRRRRRRR [DEPTAC, DEPhosphorylation TArgeting Chimera; 38 amino acid residues, C185H314N72O56]
hippocampal phospho-tau after stopping the dox [1, 3]: reduced; also recorded: downregulated
hippocampal total tau after stopping the dox [1, 3]: reduced; also recorded: downregulated
degree of tau reduction by DEPTAC ([1]; discussion, compared with tau knock-out or siRNA knock-down): far less than tau knock-out or siRNA-mediated knock-down
hippocampal phospho-tau, dox kept on [1, 4]: significantly reduced; also recorded: effectively facilitated the dephosphorylation
hippocampal total tau, dox kept on [1, 4]: significantly reduced; also recorded: effectively facilitated the dephosphorylation as well as the degradation of tau
hippocampal phosphorylated tau ([1]; dox-treated Tau368 mice, 5 mM, i.c.v., for a consecutive month / for once, 12–72 h post injection, n = 3–4): effective in reducing; also recorded: reduced phosphorylated and total tau prominently
RIPA lysis buffer-insoluble tau [1, 5]: tend to be decreased
RIPA lysis buffer-soluble tau [1, 5]: tend to be decreased
novel-object recognition in control mice (Tau368 mice; Tau368 mice treated with NW): only limitedly affected
novel-object recognition impairment (Tau368 mice; dox-treated Tau368 mice, 1-month DEPTAC after stopping dox, *p < 0.05, n = 10–15 mice): remarkably ameliorated; also recorded: rescued
thioflavin T (ThT)-stained tau aggregation in the DG (tau aggregation): ameliorated
reversal of FITC-DEPTAC/tau polarization by increased amount of unlabeled-DEPTAC (human tau): both were reversed
time post injection of tau reduction [2]: 12 to 72 h
hippocampal total tau ([2]; for a consecutive month / for once, 12–72 h post injection, n = 3–4): effective in reducing; also recorded: reduced phosphorylated and total tau prominently

From publication PMC8280143, “A novel dephosphorylation targeting chimera selectively promoting tau removal in tauopathies” (Signal Transduction and Targeted Therapy, 2021)
